Source: US12024506B2, “Compounds” (Oxford University Innovation Limited, priority 2018, dated 2024)

Key:
[1] = tested on: DLD1 cells (ATCC CCL-221); experiment: Cell viability assay 1 (CellTiter-Glo), DLD1 cells; assay type: cell-based; conditions: Homo sapiens, DLD-1 cells, 48 h, second value of the cell, read-out: Cell Viability DLD-1 (concentration that decreases cell viability by 50%)
Outline: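 DLD1 cells grown in RPMI-1640 with 10% FCS, 2 mM L-glutamine, 37 °C, 5% CO2, plated overnight then exposed to compound (0.5% DMSO) for 48 h. Viability by CellTiter-Glo luminescence; value is concentration reducing viability by 50% from dose-response curves.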

[2] = target: T1, GST-human KRas166 (G12V) GPPNHP (Homo sapiens, UniProt P01116, G12V); experiment: KRas small-molecule screening by SPR (Biacore T200); assay type: binding; conditions: compound 100 uM, 5% DMSO buffer; immobilised GST-KRas166 (G12V) GPPNHP
T1 construct: made in house; host or cells: E. coli C41(DE3)
Outline: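 GST-KRas166 G12V loaded with GPPNHP, captured on anti-GST CM5 chip at 10,000–15,000 RU, GST reference channel. Compounds run at 100 uM in buffer with 100 mM NaCl, 5 mM MgCl2, 5% DMSO, with DMSO solvent correction; Rmax for 1:1 binding taken as 63 RU.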

[3] = tested on: H358 cells (ATCC CRL-5807); experiment: Cell viability assay 1 (CellTiter-Glo), H358 cells; assay type: cell-based; conditions: Homo sapiens, NCI-H358, 48 h, first value of the cell, read-out: Cell Viability H358 (concentration that decreases cell viability by 50%)
Outline: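 H358 cells were grown in RPMI-1640 with 10% FCS and 2 mM L-glutamine, plated at 5000 cells/well and allowed to adhere overnight. Compound was added in 0.5% DMSO final for 48 h at 37° C. Viability was read by CellTiter-Glo luminescence, with the 50% viability-reducing concentration derived from dose-response curves.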

Compound	IC50 [1] [µM]	SPR Response Units [2] [Response Units]	IC50 [3] [µM]
COc1cccc(-c2cccc3c2OC(CNC(=O)c2coc(CN4CCOCC4)c2)CO3)n1 (stereo not drawn) [Example 46, 5-Morpholin-4-ylmethyl-furan-3-carboxylic acid [8-(6-methoxy-pyridin-2-yl)-2,3-dihydro-benzo[1,4]dioxin-2-ylmethyl]-amide]	> 100	148	> 100
COc1nc(-c2cccc3c2OCCO3)ccc1Nc1ccc(CNCC2CCN(C(=O)OC(C)(C)C)CC2)cc1 [Example 171, 4-({4-[6-(2,3-Dihydro-benzo[1,4]dioxin-5-yl)-2-methoxy-pyridin-3-ylamino]-benzylamino}-methyl)-piperidine-1-carboxylic acid tert-butyl ester]	0.14	30	6.6
COc1nc(-c2cccc3c2OCCO3)ccc1Nc1cccc(C(=O)NCC2CCNCC2)c1 [Example 180, 3-[6-(2,3-Dihydro-benzo[1,4]dioxin-5-yl)-2-methoxy-pyridin-3-ylamino]-N-piperidin-4-ylmethyl-benzamide]	0.65	197	8.6
COc1nc(-c2cccc3c2OCCO3)ccc1Nc1cccc(CNCc2cn[nH]c2)c1 [Example 126, [6-(2,3-Dihydro-benzo[1,4]dioxin-5-yl)-2-methoxy-pyridin-3-yl]-(3-{[(1H-pyrazol-4-ylmethyl)-amino]-methyl}-phenyl)-amine]	5.3	210	5.4
COc1nc(-c2cccc3c2OC(CNC(=O)C2CCOCC2)CO3)ccc1Nc1ccc(CNCc2ccccn2)cc1 (stereo not drawn) [Example 118, Tetrahydro-pyran-4-carboxylic acid {8-[6-methoxy-5-(4-{[(pyridin-2-ylmethyl)-amino]-methyl}-phenylamino)-pyridin-2-yl]-2,3-dihydro-benzo[1,4]dioxin-2-ylmethyl}-amide]	11	291	12.8
COc1nc(-c2cccc3c2OCCO3)ccc1Nc1cccc(CN(C)C)c1 [Example 55, [6-(2,3-dihydro-benzo[1,4]dioxin-5-yl)-2-methoxy-pyridin-3-yl]-(3-dimethylaminomethyl-phenyl)-amine]	9.2	130	8
COc1nc(-c2cccc3c2OCCO3)ccc1Nc1cccc(CC(=O)NCC2CCN(C)CC2)c1 [Example 202, 2-{3-[6-(2,3-Dihydro-benzo[1,4]dioxin-5-yl)-2-methoxy-pyridin-3-ylamino]-phenyl}-N-(1-methyl-piperidin-4-ylmethyl)-acetamide]	10.5	387	17.5
COc1nc(-c2cccc3c2OCCO3)ccc1Nc1cccc(C(=O)NCC2CCC(=O)NC2)c1 (stereo not drawn) [Example 164, 3-[6-(2,3-Dihydro-benzo[1,4]dioxin-5-yl)-2-methoxy-pyridin-3-ylamino]-N-(6-oxo-piperidin-3-ylmethyl)-benzamide]	4.8	136	25.9
COc1nc(-c2cccc3c2OCCO3)ccc1Nc1cccc(CNCC2CCC(=O)NC2)c1 (stereo not drawn) [Example 195, 5-({3-[6-(2,3-Dihydro-benzo[1,4]dioxin-5-yl)-2-methoxy-pyridin-3-ylamino]-benzylamino}-methyl)-piperidin-2-one]	3.8	176	13
COc1nc(-c2cccc3c2OCCO3)ccc1Nc1cccc(CNC(=O)c2cccnc2)c1 [Example 79, N-{3-[6-(2,3-Dihydro-benzo[1,4]dioxin-5-yl)-2-methoxy-pyridin-3-ylamino]-benzyl}-nicotinamide]	16.5	47	18
COc1nc(-c2cccc3c2OCCO3)ccc1Nc1cccc(CNCc2cc[nH]c(=O)c2)c1 [Example 193, 4-({3-[6-(2,3-Dihydro-benzo[1,4]dioxin-5-yl)-2-methoxy-pyridin-3-ylamino]-benzylamino}-methyl)-1H-pyridin-2-one]	14.8	388	52.5
COc1nc(-c2cccc3c2OCCO3)ccc1Nc1cccc(CN2CCCC(C(N)=O)C2)c1 (stereo not drawn) [Example 200, 1-{3-[6-(2,3-Dihydro-benzo[1,4]dioxin-5-yl)-2-methoxy-pyridin-3-ylamino]-benzyl}-piperidine-3-carboxylic acid amide]	8.6	424	1.5
CN1CCN(Cc2ccc(C(=O)NCC3COc4cccc(-c5ccc(OCc6ccccc6)cn5)c4O3)o2)CC1 (stereo not drawn) [Example 109, 5-(4-Methyl-piperazin-1-ylmethyl)-furan-2-carboxylic acid [8-(5-benzyloxy-pyridin-2-yl)-2,3-dihydro-benzo[1,4]dioxin-2-ylmethyl]-amide]	9	114	> 100
c1cc2c(c(-c3ccc(Nc4ccc(CNCC5COCCN5)cc4)cc3)c1)OCCO2 (stereo not drawn) [Example 151, 4-(2,3-dihydrobenzo[b][1,4]dioxin-5-yl)-N-(4-(((morpholin-3-ylmethyl)amino)methyl)phenyl)aniline]	1.36	150	14.7
COc1nc(-c2cccc3c2OCCO3)ccc1Nc1cccc(CC(=O)N2CCN(C)CC2)c1 [Example 204, 2-{3-[6-(2,3-Dihydro-benzo[1,4]dioxin-5-yl)-2-methoxy-pyridin-3-ylamino]-phenyl}-1-(4-methyl-piperazin-1-yl)-ethanone]	17.6	423	19.8
COc1nc(-c2cccc3c2OCCO3)ccc1Nc1ccc(CC(=O)N2CCN(C)CC2)cc1 [Example 198, 2-{4-[6-(2,3-Dihydro-benzo[1,4]dioxin-5-yl)-2-methoxy-pyridin-3-ylamino]-phenyl}-1-(4-methyl-piperazin-1-yl)-ethanone]	21.8	330	1.57
COc1nc(-c2cccc3c2OCCO3)ccc1Nc1ccc(C(=O)NCC2CCN(Cc3ccccc3)CC2)cc1 [Example 185, N-(1-Benzyl-piperidin-4-ylmethyl)-4-[6-(2,3-dihydro-benzo[1,4]dioxin-5-yl)-2-methoxy-pyridin-3-ylamino]-benzamide]	1.2	122	2.4
COc1nc(-c2cccc3c2OCCO3)ccc1Nc1ccc(C(=O)NCC2CCNCC2)cc1 [Example 179, 4-[6-(2,3-Dihydro-benzo[1,4]dioxin-5-yl)-2-methoxy-pyridin-3-ylamino]-N-piperidin-4-ylmethyl-benzamide]	0.39	162	7.5
COc1nc(-c2cccc3c2OCCO3)ccc1Nc1ccc(CNCc2cc[nH]c(=O)c2)cc1 [Example 170, 4-({4-[6-(2,3-Dihydro-benzo[1,4]dioxin-5-yl)-2-methoxy-pyridin-3-ylamino]-benzylamino}-methyl)-1H-pyridin-2-one]	2	284	13.6
